Data taken from PMC12079613 (Journal of medicinal chemistry, 2019).

Tests used:
D3R [1] = biological target: T1, D3R (Homo sapiens, UniProt P35462); experiment: Dopamine-mediated β-arrestin 2 recruitment assay; type: cell-based; details: DA as orthosteric ligand
[2] = biological target: serotonin subclass receptors; experiment: PDSP binding, serotonin subclass receptors; details: read-out: Ki for all of the serotonin subclass receptors
α2β2 = α2β2 (Rattus norvegicus, UniProt P12389+P12390); experiment: PDSP binding, α2β2; details: read-out: inhibition in primary assay at 10 μM
α2β2, sequence (P12389 28-511): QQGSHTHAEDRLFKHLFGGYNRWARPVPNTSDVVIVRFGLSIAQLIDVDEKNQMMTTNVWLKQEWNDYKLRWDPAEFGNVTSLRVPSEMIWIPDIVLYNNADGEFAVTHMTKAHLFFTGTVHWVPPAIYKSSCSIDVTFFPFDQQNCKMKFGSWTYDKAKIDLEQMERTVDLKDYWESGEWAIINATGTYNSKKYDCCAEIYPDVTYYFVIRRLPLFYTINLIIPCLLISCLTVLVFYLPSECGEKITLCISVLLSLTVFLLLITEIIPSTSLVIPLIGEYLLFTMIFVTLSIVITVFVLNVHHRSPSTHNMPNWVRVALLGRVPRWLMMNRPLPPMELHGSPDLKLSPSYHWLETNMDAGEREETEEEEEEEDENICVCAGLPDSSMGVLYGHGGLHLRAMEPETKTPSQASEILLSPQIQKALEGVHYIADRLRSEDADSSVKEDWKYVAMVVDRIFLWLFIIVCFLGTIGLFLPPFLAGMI
α2β2, sequence (P12390 25-500): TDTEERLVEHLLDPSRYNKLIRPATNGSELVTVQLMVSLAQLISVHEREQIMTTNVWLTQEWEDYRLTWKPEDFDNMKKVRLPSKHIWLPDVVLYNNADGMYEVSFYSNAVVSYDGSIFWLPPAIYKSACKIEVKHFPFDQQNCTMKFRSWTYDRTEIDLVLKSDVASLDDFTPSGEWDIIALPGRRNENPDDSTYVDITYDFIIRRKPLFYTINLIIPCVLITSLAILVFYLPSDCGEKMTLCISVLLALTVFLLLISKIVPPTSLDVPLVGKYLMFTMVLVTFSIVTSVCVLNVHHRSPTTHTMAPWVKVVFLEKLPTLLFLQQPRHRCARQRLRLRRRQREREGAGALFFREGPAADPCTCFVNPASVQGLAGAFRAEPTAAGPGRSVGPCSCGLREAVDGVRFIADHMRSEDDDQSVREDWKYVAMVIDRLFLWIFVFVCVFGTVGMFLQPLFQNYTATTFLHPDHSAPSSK

α2β4 = α2β4 (Rattus norvegicus, UniProt P12389+P12392); experiment: PDSP binding, α2β4; details: read-out: inhibition in primary assay at 10 μM
α2β4, sequence (P12389 28-511): as the sequence (P12389 28-511) above
α2β4, sequence (P12392 21-495): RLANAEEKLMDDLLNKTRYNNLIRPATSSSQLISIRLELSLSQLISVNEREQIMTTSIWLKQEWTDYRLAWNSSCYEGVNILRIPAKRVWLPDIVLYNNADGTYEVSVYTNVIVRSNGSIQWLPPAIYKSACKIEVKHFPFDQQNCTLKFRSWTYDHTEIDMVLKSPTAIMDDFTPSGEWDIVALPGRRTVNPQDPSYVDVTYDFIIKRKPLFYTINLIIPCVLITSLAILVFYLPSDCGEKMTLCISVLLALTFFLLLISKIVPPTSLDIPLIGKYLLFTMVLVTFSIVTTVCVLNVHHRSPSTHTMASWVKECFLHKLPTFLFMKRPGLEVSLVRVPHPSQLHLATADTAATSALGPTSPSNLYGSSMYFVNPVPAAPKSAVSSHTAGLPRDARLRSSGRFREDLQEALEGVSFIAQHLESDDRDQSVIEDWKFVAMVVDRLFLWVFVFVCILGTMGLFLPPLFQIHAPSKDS

α3β2 = α3β2 (Rattus norvegicus, UniProt P04757+P12390); experiment: PDSP binding, α3β2; details: read-out: inhibition in primary assay at 10 μM
α3β2, sequence (P04757 26-499): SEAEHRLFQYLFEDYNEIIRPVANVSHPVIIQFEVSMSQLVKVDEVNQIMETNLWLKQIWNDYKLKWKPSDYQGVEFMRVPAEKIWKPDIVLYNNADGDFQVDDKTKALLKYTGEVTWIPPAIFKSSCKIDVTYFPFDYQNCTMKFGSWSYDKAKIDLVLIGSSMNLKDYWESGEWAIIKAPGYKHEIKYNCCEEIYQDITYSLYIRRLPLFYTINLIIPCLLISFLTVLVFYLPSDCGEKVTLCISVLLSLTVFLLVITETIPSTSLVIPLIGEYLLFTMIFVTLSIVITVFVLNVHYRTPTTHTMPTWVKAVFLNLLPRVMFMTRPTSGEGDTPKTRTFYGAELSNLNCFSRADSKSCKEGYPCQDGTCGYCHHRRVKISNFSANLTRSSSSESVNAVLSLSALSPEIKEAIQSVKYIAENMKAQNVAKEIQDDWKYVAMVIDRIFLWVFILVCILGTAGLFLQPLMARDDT
α3β2, sequence (P12390 25-500): as the sequence (P12390 25-500) above

α4β4 = α4β4 (Rattus norvegicus, UniProt P09483+P12392); experiment: PDSP binding, α4β4; details: read-out: inhibition in primary assay at 10 μM
α4β4, sequence (P09483 31-630): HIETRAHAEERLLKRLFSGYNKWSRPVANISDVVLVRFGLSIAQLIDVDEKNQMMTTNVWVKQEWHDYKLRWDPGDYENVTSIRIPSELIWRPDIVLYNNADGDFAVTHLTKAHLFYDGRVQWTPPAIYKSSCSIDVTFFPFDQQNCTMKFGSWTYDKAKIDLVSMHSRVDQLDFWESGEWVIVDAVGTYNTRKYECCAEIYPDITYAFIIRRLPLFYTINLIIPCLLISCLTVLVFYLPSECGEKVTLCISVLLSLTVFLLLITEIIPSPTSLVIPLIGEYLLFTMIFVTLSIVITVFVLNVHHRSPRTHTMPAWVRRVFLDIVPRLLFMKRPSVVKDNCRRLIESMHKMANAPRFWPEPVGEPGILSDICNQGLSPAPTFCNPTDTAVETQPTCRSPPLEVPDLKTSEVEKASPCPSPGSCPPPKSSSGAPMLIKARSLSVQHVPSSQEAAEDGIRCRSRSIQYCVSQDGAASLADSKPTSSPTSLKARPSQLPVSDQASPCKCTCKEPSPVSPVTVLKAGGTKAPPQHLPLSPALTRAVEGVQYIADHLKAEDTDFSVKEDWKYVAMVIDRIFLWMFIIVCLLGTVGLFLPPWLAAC
α4β4, sequence (P12392 21-495): as the sequence (P12392 21-495) above

D3R [3] = biological target: T1, D3R; experiment: Radioligand binding, [125I]IABN, HEK cells expressing human D3; details: for D2/D3 ratio: (Ki for D2 receptors)/(Ki for D3 receptors)
D2R = D2R (Homo sapiens, UniProt P14416); experiment: PDSP β-arrestin recruitment Tango assay, D2R; type: cell-based; details: Tango assays, agonist and antagonist mode
D2R, sequence (P14416 whole entry): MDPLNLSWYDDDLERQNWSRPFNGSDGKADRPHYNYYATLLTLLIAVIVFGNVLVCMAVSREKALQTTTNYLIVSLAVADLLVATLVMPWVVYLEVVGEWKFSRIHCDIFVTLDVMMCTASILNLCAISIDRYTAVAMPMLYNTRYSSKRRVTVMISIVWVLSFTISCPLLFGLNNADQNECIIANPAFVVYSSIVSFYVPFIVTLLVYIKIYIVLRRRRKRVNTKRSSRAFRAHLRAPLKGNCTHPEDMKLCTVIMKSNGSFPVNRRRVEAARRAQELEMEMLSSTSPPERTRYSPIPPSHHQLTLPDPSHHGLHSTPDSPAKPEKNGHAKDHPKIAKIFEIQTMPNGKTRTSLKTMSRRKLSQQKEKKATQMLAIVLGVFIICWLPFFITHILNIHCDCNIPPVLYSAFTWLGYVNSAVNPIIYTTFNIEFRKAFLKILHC

D3R [4] = biological target: T1, D3R; experiment: PDSP β-arrestin recruitment Tango assay, D3R; type: cell-based; details: Tango assays, agonist and antagonist mode
α3β4 = α3β4 (Rattus norvegicus, UniProt P04757+P12392); experiment: PDSP binding, α3β4; details: read-out: inhibition in primary assay at 10 μM
α3β4, sequence (P04757 26-499): as the sequence (P04757 26-499) above
α3β4, sequence (P12392 21-495): as the sequence (P12392 21-495) above

human D2 (long) = human D2 (long) (Homo sapiens, UniProt P14416); experiment: Radioligand binding, [125I]IABN, HEK cells expressing human D2; details: human D2 in HEK cells, mean ± SEM, at least three experiments
human D2 (long), sequence (P14416 whole entry): as the sequence (P14416 whole entry) above

T1 sequence (P35462 whole entry): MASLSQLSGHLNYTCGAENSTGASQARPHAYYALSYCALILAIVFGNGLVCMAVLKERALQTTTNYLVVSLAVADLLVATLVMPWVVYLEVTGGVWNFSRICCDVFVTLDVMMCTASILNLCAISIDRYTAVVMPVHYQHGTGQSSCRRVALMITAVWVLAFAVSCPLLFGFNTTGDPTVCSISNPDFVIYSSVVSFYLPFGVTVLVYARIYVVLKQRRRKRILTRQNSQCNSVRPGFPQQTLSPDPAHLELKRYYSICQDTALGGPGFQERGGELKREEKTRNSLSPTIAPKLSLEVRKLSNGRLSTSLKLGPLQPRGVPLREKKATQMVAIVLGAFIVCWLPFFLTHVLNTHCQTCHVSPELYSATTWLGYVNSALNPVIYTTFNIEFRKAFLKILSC

COc1ccccc1N1CCC2(CCN(CCCSc3nnc(-c4ccccc4)n3C)CC2)CC1 [Compound 1, 3-(2-methoxyphenyl)-9-(3-((4-methyl-5-phenyl-4H-1,2,4-triazol-3-yl)thio)-propyl)-3,9-diazaspiro[5.5]undecane]
Schild plot regression slope (D3R [1]): linear regression slope near unity | shift of dopamine dose-response curves (D3R [1]): limitless rightward shift | Ki [2]: > 1 µM | inhibition at 10 µM (α2β2): < 50% | inhibition at 10 µM (α2β4): < 50% | inhibition at 10 µM (α3β2): < 50% | inhibition at 10 µM (α4β4): < 50%

COc1ccccc1N1CCC2(CCN(CCSc3nnc(-c4ccccc4)n3C)CC2)CC1 [Compound 20, 3-(2-Methoxyphenyl)-9-(2-((4-methyl-5-phenyl-4H-1,2,4-triazol-3-yl)thio)ethyl)-3,9-diazaspiro[5.5]undecane]
D2/D3 ratio (D3R [3]): 100

CCCCN1CCC2(CCN(c3ccccc3OC)C2)C1 (stereo not shown) [Compound 5c, 2-Butyl-7-(2-methoxyphenyl)-2,7-diazaspiro[4.4]nonane]
D2/D3 ratio (D3R [3]): >1.1

COc1ccccc1N1CCN(CCCSc2nnc(-c3ccccc3)n2C)CC1 [Compound 31]
shift of dopamine dose-response curves (D3R [1]): limitless rightward shift | functional behavior at D2R (D2R): weak agonist/antagonist | functional behavior at D3R (D3R [4]): weak agonist/antagonist | inhibition at 10 µM (α2β2): < 50% | inhibition at 10 µM (α2β4): < 50% | inhibition at 10 µM (α3β2): < 50% | inhibition at 10 µM (α3β4): < 50% | inhibition at 10 µM (α4β4): < 50%

COc1ccccc1N1CCC2(CCNCC2)CC1 [4b]
D2/D3 ratio (D3R [3]): >2.5 | Ki ± SEM D3R (D3R [3]; human D3 in HEK cells, [125I]IABN, mean ± SEM, at least three experiments): >39,319 nM | Ki ± SEM D2R (human D2 (long)): 99,379 ± 11,752 nM

CCCSc1nnc(-c2ccccc2)n1C [Compound 6a, 4-Methyl-3-phenyl-5-(propylthio)-4H-1,2,4-triazole]
D2/D3 ratio (D3R [3]): >3.6

COc1ccccc1N1CCC2(CCN(CCCSc3nnc(-c4ccccc4)n3C)C2)CC1 [Compound 34, 8-(2-Methoxyphenyl)-2-(3-((4-methyl-5-phenyl-4H-1,2,4-triazol-3-yl)thio)propyl)-2,8-diazaspiro[4.5]decane]
increase in receptor selectivity (D3R [3]; relative to 33): 2 fold

CCCCN1CCC2(CC1)CCN(c1ccccc1OC)CC2 [Compound 5a, 3-Butyl-9-(2-methoxyphenyl)-3,9-diazaspiro[5.5]undecane]
D2/D3 ratio (D3R [3]): >9.6

COc1ccccc1N1CCC2(CCN(CCCSc3nnc(-c4ccccc4)[nH]3)CC2)CC1 [Compound 17, 3-(2-Methoxyphenyl)-9-(3-((5-phenyl-4H-1,2,4-triazol-3-yl)thio)-propyl)-3,9-diazaspiro[5.5]undecane]
D2/D3 ratio (D3R [3]): 35

3-(2-((4-Methyl-5-phenyl-4H-1,2,4-triazol-3-yl)thio)propyl)-3,9-diazaspiro[5.5]undecane [Compound 6f]
D2/D3 ratio (D3R [3]): >197
